Test results: PubChem BioAssay (NCI)
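Values below derive from 48-hour exposures of cells grown in 96-well plates, with endpoints linearly interpolated between the two concentrations bracketing the appropriate inhibition level. At the GI50, growth is halved. At the TGI there is no net growth.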

Key:
Experiment in all cases: DTP human tumour cell line panel, 48 h; in the data active = GI50 below about 0.43 µM; inactive = the rest
[1] = test system: UACC-257 melanoma
[2] = test system: K-562 leukemia
[3] = test system: ACHN renal
[4] = test system: COLO 205 colon
[5] = test system: OVCAR-5 ovarian
[6] = test system: M14 melanoma
[7] = test system: SK-MEL-28 melanoma
[8] = test system: TK-10 renal
[9] = test system: RPMI-8226 leukemia
[10] = test system: UACC-62 melanoma
[11] = test system: SK-MEL-2 melanoma
[12] = test system: MCF7 breast
[13] = test system: NCI-H226 lung
[14] = test system: LOX IMVI melanoma
[15] = test system: NCI/ADR-RES ovarian
[16] = test system: OVCAR-8 ovarian
[17] = test system: SF-539 CNS
[18] = test system: SF-268 CNS
[19] = test system: UO-31 renal
[20] = test system: NCI-H460 lung
[21] = test system: U251 CNS
[22] = test system: SW-620 colon
[23] = test system: A498 renal
[24] = test system: HOP-92 NSCLC
[25] = test system: SF-295 CNS
[26] = test system: SR leukemia
[27] = test system: MOLT-4 leukemia
[28] = test system: 786-0 renal
[29] = test system: MALME-3M melanoma
[30] = test system: HCT-15 colon
[31] = test system: SN12C renal
[32] = test system: CCRF-CEM leukemia
[33] = test system: CAKI-1 renal
[34] = test system: HCT-116 colon
[35] = test system: A549 NSCLC
[36] = test system: HL-60(TB) leukemia
[37] = test system: HT29 colon
[38] = test system: SK-OV-3 ovarian
[39] = test system: SNB-19 CNS
[40] = test system: PC-3 prostate
[41] = test system: SK-MEL-5 melanoma
[42] = test system: T-47D breast
[43] = test system: HCC-2998 colon
[44] = test system: MDA-MB-231 breast
[45] = test system: RXF 393 renal
[46] = test system: OVCAR-4 ovarian
[47] = test system: BT-549 breast
[48] = test system: KM12 colon
[49] = test system: SNB-75 CNS
[50] = test system: IGROV1 ovarian
[51] = test system: NCI-H23 lung
[52] = test system: OVCAR-3 ovarian
[53] = test system: MDA-MB-435
[54] = test system: DU-145 prostate
[55] = test system: HOP-62 NSCLC
[56] = test system: EKVX NSCLC

COc1cc([C@@H]2c3cc4c(cc3[C@@H](Nc3ccc(C(=O)N[C@H]5CCc6cc(OC)c(OC)c(OC)c6-c6ccc(SC)c(=O)cc65)cc3)[C@H]3COC(=O)[C@H]23)OCO4)cc(OC)c1O
> 100 µM: TGI [1] | TGI [2] | TGI [5] | TGI [7] | TGI [8] | TGI [13] | TGI [14] | TGI [16] | TGI [17] | TGI [18] | TGI [25] | TGI [30] | TGI [34] | TGI [35]
12.7 µM: TGI [4]
16.4 µM: TGI [31]
19.3 µM: TGI [24]
17.3 µM: TGI [15]
52.2 µM: TGI [6]
83 µM: TGI [12]
22.2 µM: TGI [3]
86.4 µM: TGI [19]
16.1 µM: TGI [32]
17.2 µM: TGI [10]
15.2 µM: TGI [21]
21.8 µM: TGI [23]
0.149 µM: TGI [26]
38.8 µM: TGI [9]
14.2 µM: TGI [20]
15.1 µM: TGI [11] | TGI [29]
10.9 µM: TGI [27]
13.4 µM: TGI [33]
49.1 µM: TGI [22]
19.7 µM: TGI [28]

Cc1ccc(C)c(/C=C2\CN(C(=O)OC(C)(C)C)C/C(=C\c3cc(C)ccc3C)C2=O)c1
inactive: GI50 [2] 2.94 µM | GI50 [3] 3.07 µM | GI50 [6] 2.99 µM | GI50 [36] 2.52 µM | GI50 [12] 1.94 µM | GI50 [15] 3.48 µM | GI50 [37] 3.26 µM | GI50 [16] 3.56 µM | GI50 [18] 2.76 µM | GI50 [38] > 100 µM | GI50 [39] 2.68 µM | GI50 [40] 2.71 µM | GI50 [26] 2.53 µM | GI50 [27] 2.78 µM | GI50 [32] 2.49 µM | GI50 [33] 2.89 µM | GI50 [34] 1.43 µM
> 100 µM: TGI [2] | TGI [3] | TGI [6] | TGI [36] | TGI [12] | TGI [15] | TGI [37] | TGI [16] | TGI [18] | TGI [38] | TGI [39] | TGI [40] | TGI [26] | TGI [27] | TGI [32] | TGI [33]
5.34 µM: TGI [34]

COC1=CC(c2ccc[nH]2)=N/C1=C\c1[nH]c(C)c(C(=O)CCCCC(=O)Oc2ccc3c(c2)CCC2C3CC[C@]3(C)[C@@H](O)CC[C@@H]23)c1C (some centres not stated)
8.04 µM: TGI [44]
> 100 µM: TGI [1] | TGI [3] | TGI [4] | TGI [5] | TGI [6] | TGI [41] | TGI [7] | TGI [8] | TGI [36] | TGI [9] | TGI [10] | TGI [11] | TGI [43] | TGI [12] | TGI [45] | TGI [13] | TGI [46] | TGI [15] | TGI [16] | TGI [47] | TGI [48] | TGI [18] | TGI [19] | TGI [20] | TGI [21] | TGI [49] | TGI [50] | TGI [38] | TGI [22] | TGI [39] | TGI [51] | TGI [52] | TGI [23] | TGI [25] | TGI [53] | TGI [54] | TGI [26] | TGI [27] | TGI [28] | TGI [55] | TGI [30] | TGI [31] | TGI [32] | TGI [33] | TGI [35]
13.6 µM: TGI [34]
inactive: GI50 [1] > 100 µM | GI50 [3] 5.14 µM | GI50 [4] > 100 µM | GI50 [5] > 100 µM | GI50 [6] 4.78 µM | GI50 [41] 3.63 µM | GI50 [7] > 100 µM | GI50 [42] 1.39 µM | GI50 [8] 33.8 µM | GI50 [36] > 100 µM | GI50 [9] 4.11 µM | GI50 [10] 3.58 µM | GI50 [11] 9.88 µM | GI50 [43] > 100 µM | GI50 [44] 2 µM | GI50 [12] 0.863 µM | GI50 [45] 25.8 µM | GI50 [13] 8.88 µM | GI50 [46] 9.44 µM | GI50 [15] > 100 µM | GI50 [16] > 100 µM | GI50 [47] 4.39 µM | GI50 [48] 6.66 µM | GI50 [18] > 100 µM | GI50 [19] 5.08 µM | GI50 [20] 5.71 µM | GI50 [21] 7.79 µM | GI50 [49] 12.7 µM | GI50 [50] 31.1 µM | GI50 [38] > 100 µM | GI50 [22] 4.33 µM | GI50 [39] 53.1 µM | GI50 [51] 39.9 µM | GI50 [52] > 100 µM | GI50 [23] > 100 µM | GI50 [24] 3.3 µM | GI50 [25] > 100 µM | GI50 [53] 5.47 µM | GI50 [54] 9.57 µM | GI50 [26] 3.21 µM | GI50 [27] 5.02 µM | GI50 [28] 5.64 µM | GI50 [55] 17.3 µM | GI50 [30] 3.56 µM | GI50 [31] > 100 µM | GI50 [32] 0.668 µM | GI50 [33] 5.45 µM | GI50 [34] 3.1 µM | GI50 [35] 6.58 µM
29.2 µM: TGI [24]
4.25 µM: TGI [42]

CSC12c3cc(C)n(-c4ccccc4)c3CC(C)(C)CN1C(=O)C2Oc1ccccc1 (configuration not stated)
> 100 µM: TGI [1] | TGI [2] | TGI [3] | TGI [4] | TGI [5] | TGI [6] | TGI [41] | TGI [7] | TGI [42] | TGI [9] | TGI [10] | TGI [11] | TGI [43] | TGI [44] | TGI [12] | TGI [45] | TGI [13] | TGI [46] | TGI [14] | TGI [15] | TGI [16] | TGI [47] | TGI [17] | TGI [48] | TGI [19] | TGI [20] | TGI [21] | TGI [49] | TGI [50] | TGI [22] | TGI [39] | TGI [40] | TGI [56] | TGI [51] | TGI [52] | TGI [23] | TGI [24] | TGI [25] | TGI [53] | TGI [54] | TGI [26] | TGI [27] | TGI [28] | TGI [55] | TGI [30] | TGI [31] | TGI [32] | TGI [33] | TGI [34]
86.4 µM: TGI [35]
